Assay results published in patent US20240287071A1, “CLASS OF IMIDAZOLIDINOPYRIMIDONE COMPOUNDS AND USE THEREOF IN TREATMENT OF HSCLPP-MEDIATED DISEASES” (SICHUAN UNIVERSITY, priority 2021, published 2024).
Like-named read-outs stand apart in the source and are kept apart here.

Assays:
A549 = assay: CCK-8 in vitro anti-tumor proliferation assay; type: cell-based; conditions: Homo sapiens, read-out: IC50(uM) A549
Experimental: (§1) Example 3: In vitro anti-tumor proliferation assay of the compounds. The purpose of this experiment was to use CCK-8 to detect the in vitro inhibitory activity of the compounds of the present invention against the proliferation of tumor cells. The main reagents, such as RPMI-1640, DMEM high-glucose culture medium, fetal bovine serum, trypsin, etc., were purchased from Gibco BRL. CCK8 and DMSO were products of Sigma. For in vitro experiment, the test compounds were prepared as 10 mM stock solutions in DMSO and stored at −20° C. in the refrigerator in the dark for later use, then diluted to desired concentration with complete culture medium before use. The human lung cancer cells, colon cancer cells, breast cancer cells, glioblastoma cells, human myelomonocytic leukemia cells, and human Burkitt's lymphoma cells used in this experiment were all purchased from the American ATCC company and preserved in laboratory of the inventors. All the above cell lines were cultured in RPMI-1640 complete medium or DMEM complete medium containing 10% fetal bovine serum, 100 U/mL penicillin, and 100 μg/mL streptomycin under 5% carbon dioxide, 37° C. conditions. […] The previous culture medium was discarded, fresh culture medium was added to resuspend the cells, and then the cells were counted. According to the growth rate of different cells, the cell seeding concentration was determined, generally being 3000-5000 cells/well. After determining the seeding concentration, the cell suspension was diluted to desired concentrations with fresh culture medium, and then added to a 96-well plate with 100 μL per well, and 200 μL of PBS was added to the edge wells to prevent evaporation of the culture medium. On the second day, drug treatment was performed. First, the compounds were diluted into a series of gradients with culture medium, and then the drug solution was added to the 96-well plate, with 3 parallel wells for each gradient. Each plate set a blank control group, and ONC201 was used as the positive control group.

SW620 = assay: CCK-8 in vitro anti-tumor proliferation assay; type: cell-based; conditions: Homo sapiens, SW-620, 72 hours
Experimental: as §1

Raji = assay: CCK-8 in vitro anti-tumor proliferation assay; type: cell-based; conditions: Homo sapiens, read-out: IC50(uM) Raji
Experimental: as §1

DLD1 = assay: CCK-8 in vitro anti-tumor proliferation assay; type: cell-based; conditions: Homo sapiens, DLD-1, 72 hours
Experimental: as §1

MV-4-11 = assay: CCK-8 in vitro anti-tumor proliferation assay; type: cell-based; conditions: Homo sapiens, read-out: IC50(uM) MV-4-11
Experimental: as §1

HCT115 = assay: CCK-8 in vitro anti-tumor proliferation assay; type: cell-based; conditions: Homo sapiens; Table 4; 72 hours
Experimental: as §1

HT29 = assay: CCK-8 in vitro anti-tumor proliferation assay; type: cell-based; conditions: Homo sapiens, HT-29; Table 4; 72 hours
Experimental: as §1

A172 = assay: CCK-8 in vitro anti-tumor proliferation assay; type: cell-based; conditions: Homo sapiens, A 172; Table 3; 72 hours
Experimental: as §1

HCT116 = assay: CCK-8 in vitro anti-tumor proliferation assay; type: cell-based; conditions: Homo sapiens, HCT-116, 72 hours
Experimental: as §1

SW480 = assay: CCK-8 in vitro anti-tumor proliferation assay; type: cell-based; conditions: Homo sapiens, Table 4, 72 hours
Experimental: as §1

[1] = test system: human normal embryonic kidney cells (HEK293); assay: In vitro cytotoxicity assay, CCK-8; conditions: up to 50μM; FIG. 13
Experimental: (§2) CCK8 and DMSO were products of Sigma. For in vitro experiment, the test compounds were prepared as 10 mM stock solutions in DMSO and stored at −20° C. in the refrigerator in the dark for later use, then diluted to desired concentration with complete culture medium before use. […] The previous culture medium was discarded, fresh culture medium was added to resuspend the cells, and then the cells were counted. According to the growth rate of different cells, the cell seeding concentration was determined, generally being 3000-5000 cells/well. After determining the seeding concentration, the cell suspension was diluted to desired concentrations with fresh culture medium, and then added to a 96-well plate with 100 μL per well, and 200 μL of PBS was added to the edge wells to prevent evaporation of the culture medium. On the second day, drug treatment was performed.

HsClpP [2] = target: T1, HsClpP (Homo sapiens, UniProt Q16740); assay: Isothermal Titration calorimetry (ITC); type: binding; conditions: FIG. 3
T1 sequence (Q16740 57-277): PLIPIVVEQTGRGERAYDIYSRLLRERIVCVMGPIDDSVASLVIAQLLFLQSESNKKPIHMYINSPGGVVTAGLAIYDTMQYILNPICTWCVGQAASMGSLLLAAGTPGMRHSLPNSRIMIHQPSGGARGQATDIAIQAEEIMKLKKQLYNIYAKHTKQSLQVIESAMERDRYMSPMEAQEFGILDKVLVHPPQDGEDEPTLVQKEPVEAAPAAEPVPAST
Experimental: Isothermal Titration calorimetry experiments can measure the binding affinity between small molecules and proteins. Binding affinity is generally measured and reported through the equilibrium dissociation constant (Kd), where the smaller the Kd value, the higher the binding affinity of the ligand for its target. In the experiment, the loading-samples and proteins were placed in a degassing apparatus at 30° C., with a vacuum degree of 400 mmHg or higher, and degassed for 10 minutes. A 50 mL PBS buffer was prepared, and the sample cell and syringe were rinsed. After rinsing, the liquid in the sample cell was completely removed, and the degassed protein and small molecules were taken out. The sample cell was thoroughly washed with protein, and the syringe was rinsed with the small molecule solution 3-5 times. After washing, 250 μL of protein (0.5 mM) was extracted using the syringe, avoiding the formation of bubbles. Subsequently, 200 μL was injected into the sample cell. 50 μL of the small molecule solution (0.1 mM) was extracted using an injector, again avoiding the formation of bubbles. The titration syringe was loaded onto the instrument, and titration commenced after the instrument was balanced.

HsClpP [3] = target: T1, HsClpP; assay: HsClpP enzyme hydrolysis of short peptide substrate AC-WLA-AMC; conditions: for Regulatory efficacy 1 μM / Regulatory efficacy 10 μM: promoting hydrolysis of short peptide substrate by HsClpP, relative to blank control
Experimental: This study evaluated the regulatory activity of the compounds on HsClpP by examining the hydrolysis effects of HsClpP protein on the AC-WLA-AMC substrate . […] The small molecules and the HsClpP protein solution were added to a flat-bottomed black 96-well plate, with three replicate wells for each group. […] DMSO was used as a negative control instead of small molecules. The multiple of readings at different concentrations against the readings of DMSO group was recorded as an index for evaluation of hydrolysis activity. . . . GraphPad Prism was used to plot the obtained multiple values and calculate the EC50 values.

[4] = test system: rat myocardial cells (H9C2); assay: In vitro cytotoxicity assay, CCK-8; conditions: FIG. 13
Experimental: as §2

HCT116 cells [5] = assay: Wound-healing cell migration assay; type: cell-based, human; conditions: 24 hours; compared to the control group and the ONC201 group; FIG. 12
Source text: Example 12: In vitro Antitumor Cell Migration Assay of Preferred Compound. Studies have shown that increased expression of HsClpP is crucial for the proliferation and migration of certain cancer cell lines, while functional disruption of HsClpP in cancer cells can inhibit cell migration.
Wound-Healingcan be used to detect the invasive ability of adherent tumor cells. By observing the healing ability of tumor cells towards scratches under different conditions, the impact of the compound on the ability of tumor cell migration can be reflected.

SDHB and ATF4 = assay: Levels of SDHB and ATF4 in HCT116 cells; conditions: dose-dependently; FIG. 7
HCT116 cells [6] = assay: Apoptosis, Annexin V/PI staining; conditions: 1.25 μM; FIG. 10
[7] = test system: HCT116 CRC xenograft tumors; assay: HCT116 xenograft nude mouse model; conditions: 100 mg/kg oral, twice a week, six doses
Source text: (A) Observation of tumor size in mice after treatment; (B) Photographs of excised tumor tissue after treatment; (C) Relative change in mouse body weight during treatment; (D) Relative volume change of tumors during treatment. Measurements were taken every other day; N=6 animals per group.

[8] = Table 3, read-out: IC50(uM) SW620
[9] = Table 4, read-out: IC50 ( M) SW620
[10] = Table 3, read-out: IC50(uM) DLD1
[11] = Table 4, read-out: IC50 ( M) DLD1
[12] = Table 4, read-out: IC50 ( M) HCT116
[13] = Table 5, HCT116, read-out: IC50

SMILES	IC50 (A549; A549, Table 3, 72 hours) [µM]	IC50 (SW620; [8]) [µM]	IC50 (SW620; [9]) [µM]	IC50 (Raji; Table 3, 72 hours) [µM]	IC50 (DLD1; [10]) [µM]	IC50 (DLD1; [11]) [µM]	IC50 (MV-4-11; MV4-11, Table 3, 72 hours) [µM]	IC50 (HCT115) [nM]	IC50 (HT29) [nM]	IC50 (A172) [µM]	IC50 (HCT116; [12]) [M]	IC50 (HCT116; [13]) [M]	IC50 (SW480) [nM]	cytotoxicity on HEK293 cells [1]	ITC thermodynamics of titration with HsClpP (AH, AS) (HsClpP [2])	Regulatory efficacy 1 μM (HsClpP [3])	Regulatory efficacy 10 μM (HsClpP [3])	inhibitory activity on H9C2 cells [4]	ATF4 level (SDHB and ATF4)	SDHB level (SDHB and ATF4)	further results
Cc1ccccc1CN1CCn2c1nc(=O)c1c2CCN(Cc2ccccc2)C1 [Compound 1, 7-benzyl-3-(2-methylbenzyl)-2,3,6,7,8,9-hexahydroimidazo[1,2-a]pyrido[3,4-e]pyrimidin-5(1H)-one]	2	0.6	0.6	1	0.2	0.5	0.8	1300	5300	0.5	4e-07	4e-07	1100	no significant cytotoxicity	AH<0, AS<0	+ +	+ +	no significant inhibitory activity	–	–	Kd, affinity for HsClpP (HsClpP [2]; compared to ONC201): much higher affinity for HsClpP compared to ONC201; EC50 (HsClpP [3]; excitatory activity on HsClpP): 300 nM
O=c1nc2n(c3c1CN(Cc1ccccc1)CC3)CCN2Cc1ccc(F)cc1F [Compound 19, 7-benzyl-3-(2,4-difluorobenzyl)-2,3,6,7,8,9-hexahydroimidazo[1,2-a]pyrido[3,4-e]pyrimidin-5(1H)-one]	0.4	0.15	0.09	0.1	0.2	0.09	0.05	120	80	0.15	9e-08	1e-07	120	–	–	+ +	+ +	–	–	–	–
O=c1nc2n(c3c1CN(Cc1ccccc1)CC3)CCN2Cc1ccc(F)c(F)c1 [Compound 20, 7-benzyl-3-(3,4-difluorobenzyl)-2,3,6,7,8,9-hexahydroimidazo[1,2-a]pyrido[3,4-e]pyrimidin-5(1H)-one]	0.5	0.14	0.15	0.1	0.5	0.15	0.025	200	50	0.1	1e-07	1e-07	120	–	–	+ +	+ +	–	–	–	–
O=c1nc2n(c3c1CN(Cc1ccccc1)CC3)CCN2Cc1ccc(F)c(Br)c1 [Compound 21, 7-benzyl-3-(3-bromo-4-fluorobenzyl)-2,3,6,7,8,9-hexahydroimidazo[1,2-a]pyrido[3,4-e]pyrimidin-5 (1H)-one]	–	–	–	–	–	–	–	–	–	–	–	–	–	–	AH<0, AS<0	+ +	+ +	–	ATF4 accumulation	reduction in SDHB level	migration ability of HCT116 cells (HCT116 cells [5]): significantly inhibited
Cc1ccccc1CN1C(=O)C2=C(CCN(Cc3ccccc3)C2)N2CCN=C12 [ONC201, reference compound]	–	–	–	–	–	–	–	–	–	–	–	–	–	no significant cytotoxicity	–	–	–	no significant inhibitory activity	ATF4 accumulation	reduction in SDHB level	IC50 (A549; A549, 72 h): 10 µM; IC50 (Raji; 72 h): 2.5 µM; IC50 (MV-4-11; MV4-11, 72 h): 5 µM; apoptotic rate (HCT116 cells [6]): < 4.09%
Cc1ccccc1CN1C(=O)C2=C(CCN(Cc3ccccc3)C2)N2CCN=C12 [ONC201·2HCl]	–	–	–	–	–	–	–	–	–	–	–	–	–	–	–	–	–	–	–	–	TGI (tumor growth inhibition) [7]: 57%
